“And” between values parts separate entries of the source, which are not always exact repeats. Identical values can stand only once.
Test system: Hs578T complex spheroid growth, percent test/control
Assay: Anticancer human tumor Hs578T cell line growth inhibition [AhR];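 also: luminescent viability signal as a proxy for spheroid growth; spheroids exposed to agents for one week after three days of growth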
Conditions: for viability, T/C: stronger effect = lower value; active = viability on the fitted dose curve at most 10% of control; inactive = the rest
Procedure, shortened: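 Spheroids combined tumor cells with HUVEC endothelial cells and human MSCs as stroma. AhR antagonists were paired with standard or investigational drugs, each dosed in half-log steps down from near clinical Cmax, or from 10 microM where Cmax was unknown.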

[1] = curve of first compound, second compound 0.1 µM
[2] = curve of first compound, second compound 0.316 µM
[3] = curve of first compound, second compound 1 µM
[4] = curve of first compound, second compound 3.16 µM
[5] = curve of first compound, second compound 10 µM
[6] = second compound 0.1 µM, first compound 0.00949 µM
[7] = second compound 0.1 µM, first compound 0.03 µM
[8] = second compound 0.1 µM, first compound 0.0949 µM
[9] = second compound 0.1 µM, first compound 0.3 µM
[10] = second compound 0.1 µM, first compound 0.949 µM
[11] = second compound 0.1 µM, first compound 3 µM
[12] = second compound 0.316 µM, first compound 0.00949 µM
[13] = second compound 0.316 µM, first compound 0.03 µM
[14] = second compound 0.316 µM, first compound 0.0949 µM
[15] = second compound 0.316 µM, first compound 0.3 µM
[16] = second compound 0.316 µM, first compound 0.949 µM
[17] = second compound 0.316 µM, first compound 3 µM
[18] = second compound 1 µM, first compound 0.00949 µM
[19] = second compound 1 µM, first compound 0.03 µM
[20] = second compound 1 µM, first compound 0.0949 µM
[21] = second compound 1 µM, first compound 0.3 µM
[22] = second compound 1 µM, first compound 0.949 µM
[23] = second compound 1 µM, first compound 3 µM
[24] = second compound 3.16 µM, first compound 0.00949 µM
[25] = second compound 3.16 µM, first compound 0.03 µM
[26] = second compound 3.16 µM, first compound 0.0949 µM
[27] = second compound 3.16 µM, first compound 0.3 µM
[28] = second compound 3.16 µM, first compound 0.949 µM
[29] = second compound 3.16 µM, first compound 3 µM
[30] = second compound 10 µM, first compound 0.00949 µM
[31] = second compound 10 µM, first compound 0.03 µM
[32] = second compound 10 µM, first compound 0.0949 µM
[33] = second compound 10 µM, first compound 0.3 µM
[34] = second compound 10 µM, first compound 0.949 µM
[35] = second compound 10 µM, first compound 3 µM

CC(C)CC(NC(=O)C(Cc1ccccc1)NC(=O)c1cnccn1)B(O)O (configuration not stated)
29.3% and 16.7% and 7.03%: viability, T/C (compound 0.00949 µM)
inactive: viability, T/C (compound 0.000949 µM) 105% and 102% and 101% | viability, T/C (compound 0.003 µM) 94% and 86.9% and 73.4%
active: viability, T/C (compound 0.03 µM) 0.41% and 0.42% and 0.68% | viability, T/C (compound 0.0949 µM) 0.27% and 0.44% and 1.61% | viability, T/C (compound 0.3 µM) 0.58% and 0.42% and 0.53%
6.56 nM and 5.49 nM and 4.5 nM: IC50 (curve of compound)

O=C(C=Cn1cnc(-c2cc(C(F)(F)F)cc(C(F)(F)F)c2)n1)NNc1cnccn1 + Cc1ccccc1N=Nc1ccc(NC(=O)c2ccnn2C)c(C)c1
165 nM: IC50 [3]
84.5 nM: IC50 [5]
184 nM: IC50 [2]
inactive: viability, T/C [6] 85% | viability, T/C [7] 90.5% | viability, T/C [8] 72.8% | viability, T/C [9] 30.3% | viability, T/C [10] 11.2% | viability, T/C [11] 10.7% | viability, T/C [12] 91.6% | viability, T/C [13] 88.5% | viability, T/C [14] 76.9% | viability, T/C [15] 30.3% | viability, T/C [16] 8.26% | viability, T/C [18] 87% | viability, T/C [19] 82.5% | viability, T/C [20] 68.8% | viability, T/C [21] 30.2% | viability, T/C [22] 10.4% | viability, T/C [23] 13.2% | viability, T/C [24] 84% | viability, T/C [25] 79.8% | viability, T/C [26] 70.7% | viability, T/C [27] 30.8% | viability, T/C [28] 9.79% | viability, T/C [29] 13% | viability, T/C [30] 68% | viability, T/C [31] 64.2% | viability, T/C [32] 47% | viability, T/C [33] 29.6% | viability, T/C [34] 11.9% | viability, T/C [35] 12.1%
171 nM: IC50 [4]
177 nM: IC50 [1]
active: viability, T/C [17] 10.9%

CCN(c1cc(-c2ccc(CN3CCOCC3)cc2)cc(C(=O)NCc2c(C)cc(C)[nH]c2=O)c1C)C1CCOCC1 + CC(CO)NC(=O)c1cc(-c2ccc(Cl)cc2)nn(-c2cnn(C)c2)c1=O
> 3000 nM: IC50 [1] | IC50 [2] | IC50 [3] | IC50 [4] | IC50 [5]
inactive: viability, T/C [6] 116% | viability, T/C [7] 112% | viability, T/C [8] 112% | viability, T/C [9] 102% | viability, T/C [10] 104% | viability, T/C [11] 112% | viability, T/C [12] 114% | viability, T/C [13] 112% | viability, T/C [14] 122% | viability, T/C [15] 109% | viability, T/C [16] 114% | viability, T/C [17] 98.4% | viability, T/C [18] 113% | viability, T/C [19] 121% | viability, T/C [20] 120% | viability, T/C [21] 107% | viability, T/C [22] 111% | viability, T/C [23] 113% | viability, T/C [24] 107% | viability, T/C [25] 113% | viability, T/C [26] 115% | viability, T/C [27] 111% | viability, T/C [28] 104% | viability, T/C [29] 106% | viability, T/C [30] 107% | viability, T/C [31] 104% | viability, T/C [32] 107% | viability, T/C [33] 92.3% | viability, T/C [34] 101% | viability, T/C [35] 106%

Reference: PubChem BioAssay AID1919010 (Molecular Pharmacology Branch, DTP, NCI, 2023)
